The numbers were not newly measured in US20070166380A1, “ZOLPIDEM TABLETS” (priority 2005, published 2007), which cites them from elsewhere.

For this data set the following is noted: after ingestion of the tablet.

SMILES strings stand for the structures.

Take `Cc1ccc(-c2nc3ccc(C)cn3c2CC(=O)N(C)C)cc1` [zolpidem, N,N,6-trimethyl-2-(4-methylphenyl)-imidazo [1,2-s]pyridine-3-acetamide]: the “time until zolpidem starts acting” value ('or less') was 15 to 30 min. Also, the duration of action (approximately) was 4 to 6 h.
